“Also recorded” adds a separate entry of the source. Where two headings read alike, the source gives them in different places.
Legend:
[1] = horizontal screen test in mouse (impaired motor function, neurotoxicity; therapeutic index); assay type: in vivo; conditions: mouse, po
Protocol: (§1) In this model mice are placed individually on top of a squire wire screen which is mounted horizontally on a metal rod, which is then rotated 180° so that mice are on the bottom of the screens. Impairment of the motor function is observed from the number of animals that falls from the screen or fail to climb to the top of the screens. The medial neurological toxic dose (TD50) is than calculated as above. The ratio of TD50 and ED50 refers to the therapeutic index (T.I.) for each compound. The T.I. is used to show a useful separation between neurotoxicity and antiepileptic activity. The larger the T.I. would indicate a better separation between the above activities and a good profile as anticonvulsants.

motor function, mouse = test: as above; assay type: in vivo; conditions: for T.I. (therapeutic index): ratio of TD50 (horizontal screen) and ED50 (MES), mouse p.o.; for T.I. (in words) / neurotoxicity / impairment of motor coordination (in words): mouse; for T.I. (in words): TD50/ED50; for neurotoxicity / impairment of motor coordination (in words): p.o., horizontal screen
Protocol: as §1

[2] = system: tonic hind limb extensions (maximal electroshock), mouse; test: maximal electroshock (MES) test in mouse, suppression of tonic hind limb extensions; assay type: in vivo; conditions: for ED50: po, 1 h, read-out: ED50 MES
Protocol: The compounds of the invention were evaluated in some pharmacological tests in order to investigate their potential anticonvulsant activity. To this end, compounds were screened in the maximal electroshock (MES) test. […] Briefly, a 60 Hz alternate current (mice 50 mA, rats 150 mA) was delivered for 0.2 sec through corneal electrods by means of an electrical stimulator. […] Groups of 10 animals per dose were used and the ED50 was calculated from the dose-effect curve accordingly to Litchfield and Wilcoxon (J. Pharmacol. Exp. Ther., 96 (1949), 99-113).

convulsions = conditions: WO 95/18617 and WO 96/21640; cited from earlier work
[3] = system: electro-shock convulsions, mouse; conditions: claimed in WO 94/22808; cited from earlier work
[4] = in vivo; cited from earlier work
[5] = system: tonic convulsions induced by bicuculline, mouse; test: bicuculline-induced tonic convulsions in mouse; assay type: in vivo; conditions: for anticonvulsant activity against bicuculline (in words): p.o.; for ED50: po, bicuculline s.c.
Protocol: Further to the MES test in mouse, some compounds were also evaluated in the MES test in rat and in a chemical model of tonic convulsions induced by bicuculline accordingly to the procedure described in Swinyard E. A. et al., Antiepileptic Drugs, 3rd Edition, Raven Press, New York (1989).
As reference compound FCE 26743 (S)-2-(4-(3-fluorobenzyloxy)benzylamino)propanamide was used, disclosed in the prior art in EP-B1-0400495.

[6] = system: tonic hind limb extensions (maximal electroshock), rat; test: maximal electroshock (MES) test in rat, incl. time course of anticonvulsant activity; assay type: in vivo; conditions: for Duration of action (time at which the protection is statistically significant) / Peak of activity (time of the maximal effect): MES, equiactive dose; for Duration of action (time at which the protection is statistically significant) / Peak of activity (time of the maximal effect) / ED50 / anticonvulsant activity in rat MES (in words): rat; for Duration of action (time at which the protection is statistically significant) / Peak of activity (time of the maximal effect) / anticonvulsant activity in rat MES (in words): p.o.; for ED50: po
Protocol: The compounds of the invention were evaluated in some pharmacological tests in order to investigate their potential anticonvulsant activity. To this end, compounds were screened in the maximal electroshock (MES) test. This model is widely used to assess the efficacy of antiepileptic agents against generalized and partial seizures. This study was performed in both rat and mouse by using the experimental procedure described in W. Losher et al., Epilepsy Res., 2 (1988), 145-181. Briefly, a 60 Hz alternate current (mice 50 mA, rats 150 mA) was delivered for 0.2 sec through corneal electrods by means of an electrical stimulator. […] Groups of 10 animals per dose were used and the ED50 was calculated from the dose-effect curve accordingly to Litchfield and Wilcoxon (J. Pharmacol. Exp. Ther., 96 (1949), 99-113).
In the rat MES model only the time course of anticonvulsant activity was evaluated. Groups of 10 rats were treated at their equiactive dose 30, 60, 120, 240, 360 and 480 min before the establishment of the electroshock. The peak of anticonvulsant activity and the duration of action were then evaluated.

[7] = mouse, p.o., 60 min after administration, HCl salts
[8] = in vivo, p.o., HCl salts, read-out: TD50 Horizontal screen
[9] = horizontal screen test, p.o., HCl salts, read-out: TD50 Horizontal screen

With `NC(=O)CN[C@H]1CCc2ccccc21` [TEVA Comp. 2, (S)-2-(indanylamino)acetamide, reference compound] the TD50 ([1]; in vivo) was 299 mg/kg, the “T.I. (therapeutic index)” value (motor function, mouse) was 8 and the ED50 [2, 7] was 38 mg/kg.
For `Cl.NC(=O)CNC1Cc2ccccc2C1` [CHF 3381, 2-(2-indanylamino)acetamide hydrochloride], the TD50 [1, 8] was 274 mg/kg, the “T.I. (in words)” value (motor function, mouse) was “higher T.I. than the prior art 1-aminoindane compound 2” and the “neurotoxicity / impairment of motor coordination (in words)” value (from here on “neurotoxicity / impairment”) (motor function, mouse) was “more neurotoxic”. For the same molecule, the “T.I. (therapeutic index)” value (motor function, mouse) was 13, the ED50 ([2]; Mus musculus) was 21 mg/kg and the “anticonvulsant activity / potency in MES (in words)” value (shortened to “anticonvulsant activity / potency”) ([2]; mouse, p.o., hydrochloride) was “more potent in inhibiting MES; also recorded: more potent as an anticonvulsant than the 1-aminoindane of the prior art”.
In the case of `CC(NC1CCc2ccccc21)C(N)=O` (stereo not shown) [N-(2-propionamido)-1-aminoindan], the “anticonvulsant activity (in words)” value (convulsions) is given as “not very effective” and the “therapeutic index (in words)” value (convulsions) is given as “don't seem endowed with a particularly favorable therapeutic index”.
For `NC(=O)CNC1CCc2ccccc21` (racemic) [racemic N-(2-acetamido)-1-aminoindan, N-(2-acetamido)-1-aminoindan], the “anticonvulsant activity (in words)” value (convulsions) is listed as “not very effective” and the “therapeutic index (in words)” value (convulsions) is listed as “don't seem endowed with a particularly favorable therapeutic index”.
For `CS(=O)(=O)O.NC(=O)C(CO)NCc1ccc(OCCCc2ccccc2)cc1` (stereo not shown) [FCE 28245, 3-hydroxy-2-(4-(3-phenylpropyloxy)benzylamino)propanamide methanesulphonate, reference compound], the “anticonvulsant activity in electro-shock convulsions (in words)” value [3] is given as “claimed to be active”, the TD50 ([1]; in vivo) is given as 1670 mg/kg and the “T.I. (therapeutic index)” value (motor function, mouse) is given as 9. For the same molecule, the ED50 [2, 7] was 180 mg/kg.
In the case of `NC(=O)N1c2ccccc2C=Cc2ccccc21` [carbamazepine], the “therapeutic index (in words)” value [4] is given as “smaller therapeutic indexes”.
In the case of `NC(=O)CNC1CCCc2ccccc21` (stereo not shown) [N-(2-acetamido)-1-aminotetralin], the “anticonvulsant activity (in words)” value (convulsions) is listed as “not very effective” and the “therapeutic index (in words)” value (convulsions) is listed as “don't seem endowed with a particularly favorable therapeutic index”.
In the case of `C[C@H](NC1Cc2ccccc2C1)C(N)=O` [CHF 3431, (S) 2-(2-indanylamino)propionamide], the TD50 [1, 9] is reported as 251 mg/kg, the “neurotoxicity / impairment” value (motor function, mouse) is reported as “more neurotoxic” and the “T.I. (therapeutic index)” value (motor function, mouse) is reported as 11. For the same molecule, the “anticonvulsant activity / potency” value ([2]; mouse, p.o.) was “more potent in inhibiting MES” and the ED50 [2, 7] was 22 mg/kg.
For `Cl.NC(=O)[C@H](CO)NC1Cc2ccccc2C1` [CHF 2993, (S)-3-hydroxy-2-(2-indanylamino)propanamide hydrochloride], the “anticonvulsant activity against bicuculline (in words)” value [5] was “in the same order of potency of their MES anticonvulsant activity”, the ED50 [5] was 65 mg/kg and the TD50 [1, 8] was 1170 mg/kg. For the same molecule, the “T.I. (therapeutic index)” value (motor function, mouse) was 27, the “duration of action (in words)” value ([6]; MES time course) was “longest duration of action” and the “Duration of action (time at which the protection is statistically significant)” value [6] was 6 h. For the same molecule, the “Peak of activity (time of the maximal effect)” value (shortened to “Peak of activity”) [6] was 3 h, the ED50 [6] was 31 mg/kg and the “anticonvulsant activity in rat MES (in words)” value [6] was “anticonvulsant activity close to that found in the same model in mouse”. For the same molecule, the “anticonvulsant activity / potency” value ([2]; mouse, p.o.) was “equipotent in the MES test” and the ED50 [2, 7] was 44 mg/kg.
In the case of `NC(=O)[C@@H](CO)N[C@H]1CCc2ccccc2C1` [CHF 2983, 3-hydroxy-2-(R)-(1,2,3,4-tetrahydro-naphthalen-2-(S)ylamino)propanamide], the “anticonvulsant activity against bicuculline (in words)” value [5] is reported as “in the same order of potency of their MES anticonvulsant activity”, the ED50 [5] is reported as 62 mg/kg and the TD50 [1, 9] is reported as 1300 mg/kg. For the same molecule, the “T.I. (therapeutic index)” value (motor function, mouse) was 30, the “Duration of action (time at which the protection is statistically significant)” value [6] was 2 h and the “Peak of activity” value [6] was 1 h. The ED50 [6] was 19 mg/kg, the “anticonvulsant activity in rat MES (in words)” value [6] was “more potent” and the “anticonvulsant activity / potency” value ([2]; mouse, p.o.) was “A good profile of anticonvulsant activity”. For the same molecule, the ED50 [2, 7] was 43 mg/kg.
For `C[C@H](NCc1ccc(OCc2cccc(F)c2)cc1)C(N)=O` [FCE 26743, (S)-2-(4-(3-fluorobenzyloxy)benzylamino)propanamide, reference compound], the “anticonvulsant activity against bicuculline (in words)” value [5] was “in the same order of potency of their MES anticonvulsant activity”, the ED50 [5] was 20 mg/kg and the “Duration of action (time at which the protection is statistically significant)” value [6] was 1 h. For the same molecule, the “Peak of activity” value [6] was 0.5 h, the ED50 [6] was 11 mg/kg and the “anticonvulsant activity in rat MES (in words)” value [6] was “anticonvulsant activity close to that found in the same model in mouse”.
In the case of `O=C1NC(=O)C(c2ccccc2)(c2ccccc2)N1` [phenytoin], the “therapeutic index (in words)” value [4] is given as “smaller therapeutic indexes”.
For `NC(=O)[C@@H](CO)NC1Cc2ccccc2C1` [CHF 2996], the TD50 [1, 9] was over 1500 mg/kg, the “T.I. (in words)” value (motor function, mouse) was “higher T.I” and the “neurotoxicity / impairment” value (motor function, mouse) was “low value of neurotoxicity”. The “T.I. (therapeutic index)” value (motor function, mouse) was 44, the “Duration of action (time at which the protection is statistically significant)” value [6] was 2 h and the “Peak of activity” value [6] was 1 h. For the same molecule, the ED50 [6] was 32 mg/kg, the “anticonvulsant activity in rat MES (in words)” value [6] was “anticonvulsant activity close to that found in the same model in mouse” and the “anticonvulsant activity / potency” value ([2]; mouse, p.o.) was “equipotent in the MES test”. For the same molecule, the ED50 [2, 7] was 34 mg/kg.
In the case of `CN(C1Cc2ccccc2C1)[C@H](CO)C(N)=O.Cl` [CHF 3440, (R)-3-hydroxy-2-(N-methyl-2-indanylamino)propanamide hydrochloride], the TD50 [1, 8] is reported as 689 mg/kg, the “neurotoxicity / impairment” value (motor function, mouse) is reported as “increase of the neurotoxicity” and the “T.I. (therapeutic index)” value (motor function, mouse) is reported as 20. The “anticonvulsant activity / potency” value ([2]; mouse, p.o.) was “same anticonvulsant activity” and the ED50 [2, 7] was 35 mg/kg.
In the case of `NC(=O)CN(CC(N)=O)C1CCc2ccccc21` (stereo not shown) [N,N-di-(2-acetamido)-1-aminoindan], the “anticonvulsant activity (in words)” value (convulsions) is listed as “not very effective” and the “therapeutic index (in words)” value (convulsions) is listed as “don't seem endowed with a particularly favorable therapeutic index”.
In the case of `NC(=O)[C@H](CO)N[C@@H]1CCc2ccccc2C1` [CHF 2991], the TD50 [1, 9] is reported as 1100 mg/kg, the “T.I. (therapeutic index)” value (motor function, mouse) is reported as 29 and the “anticonvulsant activity / potency” value ([2]; mouse, p.o.) is reported as “A good profile of anticonvulsant activity”. It also gave an ED50 [2, 7] of 38 mg/kg.
In the case of `NC(=O)CNC1CCc2ccc(F)cc21` (stereo not shown) [N-(2-acetamido)-6-fluoro-1-aminoindan], the “anticonvulsant activity (in words)” value (convulsions) is given as “not very effective” and the “therapeutic index (in words)” value (convulsions) is given as “don't seem endowed with a particularly favorable therapeutic index”.

Source: patent US6114391A, “α-amino acid amides, preparation thereof and the therapeutical use thereof” (priority 1996, dated 2000)
